# Test results published in patent US20180371044A1, “PEPTIDOMIMETIC MACROCYCLES” (Aileron Therapeutics, Inc., priority 2015, published 2018).
# Where a SMILES comes first, the peptide text is derived from it. Bridges are numbered along the chain shown (N, C = ends). [ ]: non-standard residue; d: D form. The star is where a group is joined. Decanoyl(3,6,9-trioxa) = COCCOCCOCC(=O)*; S5 = C=CCCC[C@](C)(N)C(=O)O; Nle = CCCC[C@H](N)C(=O)O
# Assay: Plasma compatibility
# Format: physicochemical
# Method: The plasma compatibility of exemplary peptidomimetic macrocycles was also determined. Peptidomimetic macrocycles with a plasma compatability value (PC) that is greater than 0.1 were determined as being plasma compatible.
row,SMILES,Plasma Compatability [mg/mL]
1,"CCCC[C@H](NC(=O)[C@@H](NC(=O)[C@H](CC(=O)O)NC(=O)[C@H](CCC(N)=O)NC(=O)[C@H](CC(C)C)NC(=O)[C@H](C)NC(=O)[C@H](CCCCN)NC(=O)[C@H](CCCNC(=N)N)NC(=O)[C@H](C)NC(=O)[C@H](CO)NC(=O)[C@]1(C)CCCC=CCCC[C@](C)(NC(=O)[C@H](CCCCN)NC(=O)[C@H](CCCNC(=N)N)NC(=O)[C@H](Cc2ccc(O)cc2)NC(=O)[C@H](CO)NC(=O)[C@H](CCC(N)=O)NC(=O)[C@@H](NC(=O)[C@H](Cc2ccccc2)NC(=O)[C@@H](NC(=O)[C@H](C)NC(=O)[C@H](CC(=O)O)NC(=O)[C@@H](C)NC(=O)[C@@H](N)Cc2ccc(O)cc2)[C@@H](C)CC)[C@@H](C)O)C(=O)N[C@@H](CC(C)C)C(=O)N[C@@H](C)C(=O)N[C@@H](CCC(N)=O)C(=O)N1)[C@@H](C)CC)C(=O)N[C@@H](CO)C(=O)N[C@@H](CCCNC(=N)N)C(N)=O (single isomer, unassigned) [SP-107]",1.6
2,"CCCC[C@H](NC(=O)[C@@H](NC(=O)[C@H](CC(=O)O)NC(=O)[C@H](CCC(N)=O)NC(=O)[C@H](CC(C)C)NC(=O)[C@H](C)NC(=O)[C@H](CCCCN)NC(=O)[C@H](CCCNC(=N)N)NC(=O)[C@H](C)NC(=O)[C@H](CO)NC(=O)[C@]1(C)CCCC=CCCC[C@](C)(NC(=O)[C@H](CCCCN)NC(=O)[C@H](CCCNC(=N)N)NC(=O)[C@H](Cc2ccc(O)cc2)NC(=O)[C@H](CO)NC(=O)[C@H](CCC(N)=O)NC(=O)[C@@H](NC(=O)[C@H](Cc2ccccc2)NC(=O)[C@@H](NC(=O)[C@H](C)NC(=O)[C@H](CC(=O)O)NC(=O)[C@@H](C)NC(=O)[C@@H](N)Cc2ccc(O)cc2)[C@@H](C)CC)[C@@H](C)O)C(=O)N[C@@H](CC(C)C)C(=O)N[C@@H](C)C(=O)N[C@@H](CCC(N)=O)C(=O)N1)[C@@H](C)CC)C(=O)N[C@@H](CO)C(=O)N[C@@H](CCCNC(=N)N)C(N)=O (single isomer, unassigned) [SP-108]",1.6
3,CCCC[C@H](NC(=O)[C@@H](NC(=O)[C@H](CC(=O)O)NC(=O)[C@H](CCC(N)=O)NC(=O)[C@H](CC(C)C)NC(=O)[C@H](C)NC(=O)[C@H](CCCCN)NC(=O)[C@H](CCCNC(=N)N)NC(=O)[C@H](C)NC(=O)[C@H](CO)NC(=O)[C@]1(C)CCCC=CCCC[C@](C)(NC(=O)[C@H](CCCCN)NC(=O)[C@H](CCCNC(=N)N)NC(=O)[C@H](Cc2ccc(O)cc2)NC(=O)[C@H](CO)NC(=O)[C@H](CCC(N)=O)NC(=O)[C@@H](NC(=O)[C@H](Cc2ccccc2)NC(=O)[C@@H](NC(=O)[C@H](C)NC(=O)[C@H](CC(=O)O)NC(=O)[C@@H](C)NC(=O)[C@@H](N)Cc2ccc(O)cc2)[C@@H](C)CC)[C@@H](C)O)C(=O)N[C@@H](CC(C)C)C(=O)N[C@@H](C)C(=O)N[C@@H](C)C(=O)N1)[C@@H](C)CC)C(=O)N[C@@H](CO)C(=O)N[C@@H](CCCNC(=N)N)C(N)=O [SP-104] (H-Y[dA]DAIFTQSYRK[S5]LAA[S5]SARKALQDI[Nle]SR-NH2; staple 13-17),1.2
4,CCCC[C@H](NC(=O)[C@@H](NC(=O)[C@H](CC(=O)O)NC(=O)[C@H](CCC(N)=O)NC(=O)[C@H](CC(C)C)NC(=O)[C@H](C)NC(=O)[C@H](CCCCN)NC(=O)[C@H](CCCNC(=N)N)NC(=O)[C@H](C)NC(=O)[C@H](CO)NC(=O)[C@]1(C)CCCC=CCCC[C@](C)(NC(=O)[C@H](CCCCN)NC(=O)[C@H](CCCNC(=N)N)NC(=O)[C@H](Cc2ccc(O)cc2)NC(=O)[C@H](CO)NC(=O)[C@H](CCC(N)=O)NC(=O)[C@@H](NC(=O)[C@H](Cc2ccccc2)NC(=O)[C@@H](NC(=O)[C@H](C)NC(=O)[C@H](CC(=O)O)NC(=O)[C@@H](C)NC(=O)[C@@H](N)Cc2ccc(O)cc2)[C@@H](C)CC)[C@@H](C)O)C(=O)N[C@@H](CC(C)C)C(=O)N[C@@H](C)C(=O)N[C@@H](CCC(=O)O)C(=O)N1)[C@@H](C)CC)C(=O)N[C@@H](CO)C(=O)N[C@@H](CCCNC(=N)N)C(N)=O [SP-105] (H-Y[dA]DAIFTQSYRK[S5]LAE[S5]SARKALQDI[Nle]SR-NH2; staple 13-17),1.2
5,CCCC[C@@H]1NC(=O)[C@H](C)NC(=O)[C@H](CC(C)C)NC(=O)[C@@](C)(NC(=O)[C@H](CCCCN)NC(=O)[C@H](CCCNC(=N)N)NC(=O)[C@H](Cc2ccc(O)cc2)NC(=O)[C@H](CO)NC(=O)[C@H](CCC(N)=O)NC(=O)[C@@H](NC(=O)[C@H](Cc2ccccc2)NC(=O)[C@@H](NC(=O)[C@H](C)NC(=O)[C@H](CC(=O)O)NC(=O)[C@@H](C)NC(=O)[C@@H](N)Cc2ccc(O)cc2)[C@@H](C)CC)[C@@H](C)O)CCCC=CCCC[C@@](C)(C(=O)N[C@@H](CO)C(=O)N[C@@H](C)C(=O)N[C@@H](CCCNC(=N)N)C(=O)N[C@@H](CCCCN)C(=O)N[C@@H](C)C(=O)N[C@@H](CC(C)C)C(=O)N[C@@H](CCC(N)=O)C(=O)N[C@@H](CC(=O)O)C(=O)N[C@H](C(=O)N[C@@H](CCCC)C(=O)N[C@@H](CO)C(=O)N[C@@H](CCCNC(=N)N)C(N)=O)[C@@H](C)CC)NC1=O [SP-106] (H-Y[dA]DAIFTQSYRK[S5]LA[Nle][S5]SARKALQDI[Nle]SR-NH2; staple 13-17),0.9
6,"CCCC[C@H](NC(=O)[C@@H](NC(=O)[C@H](CC(=O)O)NC(=O)[C@H](CCC(N)=O)NC(=O)[C@H](CC(C)C)NC(=O)[C@H](C)NC(=O)[C@H](CCCCN)NC(=O)[C@H](CCCNC(=N)N)NC(=O)[C@H](C)NC(=O)[C@H](CO)NC(=O)[C@]1(C)CCCC=CCCC[C@](C)(NC(=O)[C@H](CCCCN)NC(=O)[C@H](CCCNC(=N)N)NC(=O)[C@H](Cc2ccc(O)cc2)NC(=O)[C@H](CO)NC(=O)[C@H](C)NC(=O)[C@@H](NC(=O)[C@H](Cc2ccccc2)NC(=O)[C@@H](NC(=O)[C@H](C)NC(=O)[C@H](CC(=O)O)NC(=O)[C@@H](C)NC(=O)[C@H](Cc2ccc(O)cc2)NC(=O)COCCOCCOC)[C@@H](C)CC)[C@@H](C)O)C(=O)N[C@@H](CC(C)C)C(=O)N[C@@H](C)C(=O)N[C@@H](CCC(N)=O)C(=O)N1)[C@@H](C)CC)C(=O)N[C@@H](CO)C(=O)N[C@@H](CCCNC(=N)N)C(N)=O [SP-135] ({Decanoyl(3,6,9-trioxa)}-Y[dA]DAIFTASYRK[S5]LAQ[S5]SARKALQDI[Nle]SR-NH2; staple 13-17; N-terminus and C-terminus assumed)",1.6
